Measurements published in ChEMBL document CHEMBL1135835, “Biological activity of the tryprostatins and their diastereomers on human carcinoma cell lines” (2002).

Tested on: NCI-H520
Experiment: Growth inhibitory activity against H520 (human lung) cancer cell line at 10 uM dose
Assay type: functional

| SMILES | Cell survival |
| --- | --- |
| CC(C)=CCc1[nH]c2ccccc2c1C[C@H]1NC(=O)[C@H]2CCCN2C1=O | >100% |
| CC(C)=CCc1[nH]c2ccccc2c1C[C@H]1NC(=O)[C@@H]2CCCN2C1=O | >100% |
| CC(C)=CCc1[nH]c2ccccc2c1C[C@@H]1NC(=O)[C@H]2CCCN2C1=O | 88.3% |
| COc1ccc2c(C[C@H]3NC(=O)[C@H]4CCCN4C3=O)c(CC=C(C)C)[nH]c2c1 | 81.7% |
| COc1ccc2c(C[C@@H]3NC(=O)[C@H]4CCCN4C3=O)c(CC=C(C)C)[nH]c2c1 | 99.3% |
| COc1ccc2c(C[C@H]3NC(=O)[C@@H]4CCCN4C3=O)c(CC=C(C)C)[nH]c2c1 | >100% |
| COc1ccc2c(C[C@@H]3NC(=O)[C@@H]4CCCN4C3=O)c(CC=C(C)C)[nH]c2c1 [TRYPROSTATIN A] | 80.1% |
| CC(C)=CCc1[nH]c2ccccc2c1C[C@@H]1NC(=O)[C@@H]2CCCN2C1=O [TRYPROSTATIN B] | 77.6% |

Tested on: NCI-H520
Experiment: Growth inhibitory activity against H520 (human lung) cancer cell line at 100 uM dose.
Assay type: functional

| SMILES | Cell survival |
| --- | --- |
| CC(C)=CCc1[nH]c2ccccc2c1C[C@H]1NC(=O)[C@H]2CCCN2C1=O | 99.8% |
| CC(C)=CCc1[nH]c2ccccc2c1C[C@H]1NC(=O)[C@@H]2CCCN2C1=O | 76.5% |
| CC(C)=CCc1[nH]c2ccccc2c1C[C@@H]1NC(=O)[C@H]2CCCN2C1=O | 0.1% |
| COc1ccc2c(C[C@H]3NC(=O)[C@H]4CCCN4C3=O)c(CC=C(C)C)[nH]c2c1 | 75.2% |
| COc1ccc2c(C[C@@H]3NC(=O)[C@H]4CCCN4C3=O)c(CC=C(C)C)[nH]c2c1 | 98.5% |
| COc1ccc2c(C[C@H]3NC(=O)[C@@H]4CCCN4C3=O)c(CC=C(C)C)[nH]c2c1 | >100% |
| COc1ccc2c(C[C@@H]3NC(=O)[C@@H]4CCCN4C3=O)c(CC=C(C)C)[nH]c2c1 [TRYPROSTATIN A] | 79.4% |
| CC(C)=CCc1[nH]c2ccccc2c1C[C@@H]1NC(=O)[C@@H]2CCCN2C1=O [TRYPROSTATIN B] | 60.5% |

Tested on: MCF7
Experiment: Gowth inhibitory activity against MCF-7 (human lbreast) cancer cell line
Assay type: functional

| SMILES | GI50 |
| --- | --- |
| CC(C)=CCc1[nH]c2ccccc2c1C[C@@H]1NC(=O)[C@H]2CCCN2C1=O | 15.9 µM |

Tested on: MCF7
Experiment: Growth inhibitory activity against MCF-7 (human breast) cancer cell line at 10 uM dose.
Assay type: functional

| SMILES | Cell survival |
| --- | --- |
| CC(C)=CCc1[nH]c2ccccc2c1C[C@H]1NC(=O)[C@H]2CCCN2C1=O | >100% |
| CC(C)=CCc1[nH]c2ccccc2c1C[C@H]1NC(=O)[C@@H]2CCCN2C1=O | >100% |
| CC(C)=CCc1[nH]c2ccccc2c1C[C@@H]1NC(=O)[C@H]2CCCN2C1=O | 73.6% |
| COc1ccc2c(C[C@H]3NC(=O)[C@H]4CCCN4C3=O)c(CC=C(C)C)[nH]c2c1 | >100% |
| COc1ccc2c(C[C@@H]3NC(=O)[C@H]4CCCN4C3=O)c(CC=C(C)C)[nH]c2c1 | >100% |
| COc1ccc2c(C[C@H]3NC(=O)[C@@H]4CCCN4C3=O)c(CC=C(C)C)[nH]c2c1 | >100% |
| COc1ccc2c(C[C@@H]3NC(=O)[C@@H]4CCCN4C3=O)c(CC=C(C)C)[nH]c2c1 [TRYPROSTATIN A] | >100% |
| CC(C)=CCc1[nH]c2ccccc2c1C[C@@H]1NC(=O)[C@@H]2CCCN2C1=O [TRYPROSTATIN B] | 88.2% |

Tested on: MCF7
Experiment: Growth inhibitory activity against MCF-7 (human breast) cancer cell line at 100 uM dose.
Assay type: functional

| SMILES | Cell survival |
| --- | --- |
| CC(C)=CCc1[nH]c2ccccc2c1C[C@H]1NC(=O)[C@H]2CCCN2C1=O | >100% |
| CC(C)=CCc1[nH]c2ccccc2c1C[C@H]1NC(=O)[C@@H]2CCCN2C1=O | >100% |
| CC(C)=CCc1[nH]c2ccccc2c1C[C@@H]1NC(=O)[C@H]2CCCN2C1=O | 0% |
| COc1ccc2c(C[C@H]3NC(=O)[C@H]4CCCN4C3=O)c(CC=C(C)C)[nH]c2c1 | >100% |
| COc1ccc2c(C[C@@H]3NC(=O)[C@H]4CCCN4C3=O)c(CC=C(C)C)[nH]c2c1 | 99% |
| COc1ccc2c(C[C@H]3NC(=O)[C@@H]4CCCN4C3=O)c(CC=C(C)C)[nH]c2c1 | >100% |
| COc1ccc2c(C[C@@H]3NC(=O)[C@@H]4CCCN4C3=O)c(CC=C(C)C)[nH]c2c1 [TRYPROSTATIN A] | 95% |
| CC(C)=CCc1[nH]c2ccccc2c1C[C@@H]1NC(=O)[C@@H]2CCCN2C1=O [TRYPROSTATIN B] | 66.7% |

Tested on: NCI-H522
Experiment: Growth inhibitory activity against NCI-H522 (human lung) cancer cell line
Assay type: functional

| SMILES | GI50 |
| --- | --- |
| CC(C)=CCc1[nH]c2ccccc2c1C[C@@H]1NC(=O)[C@H]2CCCN2C1=O | 15.8 µM |

Tested on: PC-3
Experiment: Growth inhibitory activity against PC-3 (human prostate) cancer cell line at 10 uM dose.
Assay type: functional

| SMILES | Cell survival |
| --- | --- |
| CC(C)=CCc1[nH]c2ccccc2c1C[C@H]1NC(=O)[C@H]2CCCN2C1=O | 95.8% |
| CC(C)=CCc1[nH]c2ccccc2c1C[C@H]1NC(=O)[C@@H]2CCCN2C1=O | 97.3% |
| CC(C)=CCc1[nH]c2ccccc2c1C[C@@H]1NC(=O)[C@H]2CCCN2C1=O | 59.3% |
| COc1ccc2c(C[C@H]3NC(=O)[C@H]4CCCN4C3=O)c(CC=C(C)C)[nH]c2c1 | >100% |
| COc1ccc2c(C[C@@H]3NC(=O)[C@H]4CCCN4C3=O)c(CC=C(C)C)[nH]c2c1 | >100% |
| COc1ccc2c(C[C@H]3NC(=O)[C@@H]4CCCN4C3=O)c(CC=C(C)C)[nH]c2c1 | >100% |
| COc1ccc2c(C[C@@H]3NC(=O)[C@@H]4CCCN4C3=O)c(CC=C(C)C)[nH]c2c1 [TRYPROSTATIN A] | 99.2% |
| CC(C)=CCc1[nH]c2ccccc2c1C[C@@H]1NC(=O)[C@@H]2CCCN2C1=O [TRYPROSTATIN B] | 95.5% |

Tested on: PC-3
Experiment: Growth inhibitory activity against PC-3 (human prostate) cancer cell line at 100 uM dose.
Assay type: functional

| SMILES | Cell survival |
| --- | --- |
| CC(C)=CCc1[nH]c2ccccc2c1C[C@H]1NC(=O)[C@H]2CCCN2C1=O | 78.9% |
| CC(C)=CCc1[nH]c2ccccc2c1C[C@H]1NC(=O)[C@@H]2CCCN2C1=O | 68.5% |
| CC(C)=CCc1[nH]c2ccccc2c1C[C@@H]1NC(=O)[C@H]2CCCN2C1=O | 0.2% |
| COc1ccc2c(C[C@H]3NC(=O)[C@H]4CCCN4C3=O)c(CC=C(C)C)[nH]c2c1 | 83.7% |
| COc1ccc2c(C[C@@H]3NC(=O)[C@H]4CCCN4C3=O)c(CC=C(C)C)[nH]c2c1 | >100% |
| COc1ccc2c(C[C@H]3NC(=O)[C@@H]4CCCN4C3=O)c(CC=C(C)C)[nH]c2c1 | >100% |
| COc1ccc2c(C[C@@H]3NC(=O)[C@@H]4CCCN4C3=O)c(CC=C(C)C)[nH]c2c1 [TRYPROSTATIN A] | 95.6% |
| CC(C)=CCc1[nH]c2ccccc2c1C[C@@H]1NC(=O)[C@@H]2CCCN2C1=O [TRYPROSTATIN B] | 68.9% |

Tested on: PC-3
Experiment: Growth inhibitory activity against PC-3 (human prostate) cancer cell line
Assay type: functional

| SMILES | GI50 |
| --- | --- |
| CC(C)=CCc1[nH]c2ccccc2c1C[C@@H]1NC(=O)[C@H]2CCCN2C1=O | 11.9 µM |
